# Experimental data: US5869494A, “Uses for barbituric acid analogs” (priority 1997, dated 1999)
# Assays:
# Experiment in all cases: NCI tumor cell line screen (SRB assay)
# Type in all cases: cell-based
# Parameters in all cases: activity: dose or concentration left out as unconfirmed
# SF-539 = details: Homo sapiens, read-out: PERCENT GROWTH
# Protocol: (§1) The National Cancer Institute carried out the studies at the direction of the present inventor.
# (§2) In the tests, the National Cancer Institute used the SRB (sulforhodamine B) assay as described by Skehan et al., (Journal of the National Cancer Institute, 82:13, Jul. 4, 1990, 1107-1112). Briefly, the assay is as follows. TCA-fixed cells were stained for 30 minutes with 0.4% (wt/vol) SRB dissolved in 1% acetic acid. At the end of the staining period, SRB was removed and cultures were quickly rinsed four times with 1% acetic acid to remove unbound dye. The acetic acid was poured directly into the culture wells from a beaker. […] Residual wash solution was removed by sharply flicking plates over a sink, which ensured the complete removal of rinsing solution. […] After being rinsed, the cultures were air dried until no standing moisture was visible. Bound dye was solubilized with 10 mM unbuffered Tris base (pH 10.5) for 5 minutes on a gyratory shaker.
# (§3) Optical density (OD) was read in either a UVmax microtiter plate reader (Molecular Devices, Menlo Park, Calif.) or a Beckman DU-70 spectrophotometer. For maximum sensitivity, OD was measured at 564 nm. Because readings were linear with dye concentrations only below 1.8 OD units, however, suboptimal wavelengths were generally used, so that all samples in an experiment remained within the linear OD range. With most cell lines, wavelengths of approximately 490-530 nm worked well for this purpose.
# (§4) Nine different non-small cell lung carcinoma cell lines, six different colon carcinoma cell lines, six different CNS (central nervous system) carcinoma cell lines, seven different melanoma cell lines, six different ovarian carcinoma cell lines, and eight different renal carcinoma cell lines were tested.
# CAKI-1 = details: Homo sapiens, read-out: PERCENT GROWTH
# Protocol: as §1, §2, §3, §4
# UACC-62 = details: Homo sapiens, read-out: PERCENT GROWTH
# Protocol: as §1, §2, §3, §4
# HOP-62 = details: Homo sapiens, read-out: PERCENT GROWTH
# Protocol: as §1, §2, §3, §4
# U251 = details: Homo sapiens, U-251, read-out: PERCENT GROWTH
# Protocol: as §1, §2, §3, §4
# KM12 = details: Homo sapiens, read-out: PERCENT GROWTH
# Protocol: as §1, §2, §3, §4
# SF-268 = details: Homo sapiens, read-out: PERCENT GROWTH
# Protocol: as §1, §2, §3, §4
# NCI-H226 = details: Homo sapiens, read-out: PERCENT GROWTH
# Protocol: as §1, §2, §3, §4
# ACHN = details: Homo sapiens, read-out: PERCENT GROWTH
# Protocol: as §1, §2, §3, §4
# SK-OV-3 = details: Homo sapiens, read-out: PERCENT GROWTH
# Protocol: as §1, §2, §3, §4
# UACC-257 = details: Homo sapiens, read-out: PERCENT GROWTH
# Protocol: as §1, §2, §3, §4
# OVCAR-3 = details: Homo sapiens, read-out: PERCENT GROWTH
# Protocol: as §1, §2, §3, §4
# SK-MEL-2 = details: Homo sapiens, read-out: PERCENT GROWTH
# Protocol: as §1, §2, §3, §4
# A549/ATCC = details: Homo sapiens, read-out: PERCENT GROWTH
# Protocol: as §1, §2, §3, §4
# HOP-92 = details: Homo sapiens, read-out: PERCENT GROWTH
# Protocol: as §1, §2, §3, §4
# RXF 393 = details: Homo sapiens, read-out: PERCENT GROWTH
# Protocol: as §1, §2, §3, §4
# HT29 = details: Homo sapiens, HT-29, read-out: PERCENT GROWTH
# Protocol: as §1, §2, §3, §4
smiles,measurement,setting,value
"CCCCN1C(=O)CC(=O)N(CCCC)C1=S [Compound C1, 4,6(1H, 5H)-pyrimidinedione, 1,3-dibutyldihydro-2-thioxo]",activity,SF-539; 10^-3.0 Molar,-100%
same,activity at 100 µM,SF-539; 10^-4.0 Molar,72%
same,activity at 10 µM,SF-539; 10^-5.0 Molar,101%
same,activity at 1 µM,SF-539; 10^-6.0 Molar,104%
same,activity at 0.1 µM,SF-539; 10^-7.0 Molar,95%
same,activity,CAKI-1; 10^-3.0 Molar,-100%
same,activity at 100 µM,CAKI-1; 10^-4.0 Molar,92%
same,activity at 10 µM,CAKI-1; 10^-5.0 Molar,73%
same,activity at 1 µM,CAKI-1; 10^-6.0 Molar,85%
same,activity at 0.1 µM,CAKI-1; 10^-7.0 Molar,103%
same,activity,UACC-62; 10^-3.0 Molar,-79%
same,activity at 100 µM,UACC-62; 10^-4.0 Molar,53%
same,activity at 10 µM,UACC-62; 10^-5.0 Molar,88%
same,activity at 1 µM,UACC-62; 10^-6.0 Molar,91%
same,activity at 0.1 µM,UACC-62; 10^-7.0 Molar,94%
same,activity,HOP-62; 10^-3.0 Molar,-100%
same,activity at 100 µM,HOP-62; 10^-4.0 Molar,93%
same,activity at 10 µM,HOP-62; 10^-5.0 Molar,96%
same,activity at 1 µM,HOP-62; 10^-6.0 Molar,99%
same,activity at 0.1 µM,HOP-62; 10^-7.0 Molar,98%
same,activity,U251; 10^-3.0 Molar,-55%
same,activity at 100 µM,U251; 10^-4.0 Molar,54%
same,activity at 10 µM,U251; 10^-5.0 Molar,102%
same,activity at 1 µM,U251; 10^-6.0 Molar,111%
same,activity at 0.1 µM,U251; 10^-7.0 Molar,104%
same,activity,KM12; 10^-3.0 Molar,-90%
same,activity at 100 µM,KM12; 10^-4.0 Molar,76%
same,activity at 10 µM,KM12; 10^-5.0 Molar,102%
same,activity at 1 µM,KM12; 10^-6.0 Molar,101%
same,activity at 0.1 µM,KM12; 10^-7.0 Molar,101%
same,activity,SF-268; 10^-3.0 Molar,-58%
same,activity at 100 µM,SF-268; 10^-4.0 Molar,52%
same,activity at 10 µM,SF-268; 10^-5.0 Molar,93%
same,activity at 1 µM,SF-268; 10^-6.0 Molar,100%
same,activity at 0.1 µM,SF-268; 10^-7.0 Molar,98%
same,activity,NCI-H226; 10^-3.0 Molar,-39%
same,activity at 100 µM,NCI-H226; 10^-4.0 Molar,90%
same,activity at 10 µM,NCI-H226; 10^-5.0 Molar,106%
same,activity at 1 µM,NCI-H226; 10^-6.0 Molar,100%
same,activity at 0.1 µM,NCI-H226; 10^-7.0 Molar,96%
same,activity,ACHN; 10^-3.0 Molar,-3%
same,activity at 100 µM,ACHN; 10^-4.0 Molar,89%
same,activity at 10 µM,ACHN; 10^-5.0 Molar,107%
same,activity at 1 µM,ACHN; 10^-6.0 Molar,105%
same,activity at 0.1 µM,ACHN; 10^-7.0 Molar,99%
same,activity,SK-OV-3; 10^-3.0 Molar,-100%
same,activity at 100 µM,SK-OV-3; 10^-4.0 Molar,85%
same,activity at 10 µM,SK-OV-3; 10^-5.0 Molar,92%
same,activity at 1 µM,SK-OV-3; 10^-6.0 Molar,90%
same,activity at 0.1 µM,SK-OV-3; 10^-7.0 Molar,95%
same,activity,UACC-257; 10^-3.0 Molar,-77%
same,activity at 100 µM,UACC-257; 10^-4.0 Molar,75%
same,activity at 10 µM,UACC-257; 10^-5.0 Molar,96%
same,activity at 1 µM,UACC-257; 10^-6.0 Molar,102%
same,activity at 0.1 µM,UACC-257; 10^-7.0 Molar,102%
same,activity,OVCAR-3; 10^-3.0 Molar,-93%
same,activity at 100 µM,OVCAR-3; 10^-4.0 Molar,89%
same,activity at 10 µM,OVCAR-3; 10^-5.0 Molar,110%
same,activity at 1 µM,OVCAR-3; 10^-6.0 Molar,114%
same,activity at 0.1 µM,OVCAR-3; 10^-7.0 Molar,110%
same,activity,SK-MEL-2; 10^-3.0 Molar,-55%
same,activity at 100 µM,SK-MEL-2; 10^-4.0 Molar,87%
same,activity at 10 µM,SK-MEL-2; 10^-5.0 Molar,100%
same,activity at 1 µM,SK-MEL-2; 10^-6.0 Molar,106%
same,activity at 0.1 µM,SK-MEL-2; 10^-7.0 Molar,110%
same,activity,A549/ATCC; 10^-3.0 Molar,-98%
same,activity at 100 µM,A549/ATCC; 10^-4.0 Molar,67%
same,activity at 10 µM,A549/ATCC; 10^-5.0 Molar,95%
same,activity at 1 µM,A549/ATCC; 10^-6.0 Molar,95%
same,activity at 0.1 µM,A549/ATCC; 10^-7.0 Molar,98%
same,activity,HOP-92; 10^-3.0 Molar,-70%
same,activity at 100 µM,HOP-92; 10^-4.0 Molar,51%
same,activity at 10 µM,HOP-92; 10^-5.0 Molar,104%
same,activity at 1 µM,HOP-92; 10^-6.0 Molar,110%
same,activity at 0.1 µM,HOP-92; 10^-7.0 Molar,104%
same,activity,RXF 393; 10^-3.0 Molar,-85%
same,activity at 100 µM,RXF 393; 10^-4.0 Molar,43%
same,activity at 10 µM,RXF 393; 10^-5.0 Molar,86%
same,activity at 1 µM,RXF 393; 10^-6.0 Molar,93%
same,activity at 0.1 µM,RXF 393; 10^-7.0 Molar,93%
same,activity,HT29; 10^-3.0 Molar,-96%
same,activity at 100 µM,HT29; 10^-4.0 Molar,76%
same,activity at 1 µM,HT29; 10^-6.0 Molar,103%
same,activity at 0.1 µM,HT29; 10^-7.0 Molar,102%
